Laboratory results from US10441630B2, “Topical formulations and uses thereof” (OCULAR TECHNOLOGIES SARL, priority 2012, dated 2019).

Tests used:
Assay type in all cases: physicochemical
[1] = Physical appearance, melt method, HCO-40 and compound 1001; conditions: 1001 4 wt %
Procedure: (§1) The preparation of MNF encapsulating compound 1001 (neat oil) can be divided into two steps. […] […] To this melt polymer compound 1001 (˜20 mg), thermostated at 40° C., was added and mixed for homogenous distribution. […] (in refrigerator).
(§2) This aqueous solution was allowed to reach room temperature, under natural conditions. The pH of the solution was adjusted to 5.5 and the volume was made up with 2× phosphate buffer saline (pH 5.5) containing octoxynol-40 (0.01 wt %) and PVP-K-90 (1.2 wt %). The formulation was filtered through 0.2 μm nylon filter to remove any foreign material and obtain a clear homogenous aqueous RX-1001 formulation.
(§3) The results obtained for physical appearance of the mixture, different phases, at different temperatures and appearance of final formulation are summarized in Tables 3a-3c.

[2] = Physical appearance, melt method, HCO-60 and compound 1001; conditions: 1001 4 wt %; for Resuspend in water: water at 40° C.; for Physical appearance at room temperature (25° C.): melt mixture
Procedure: as §1, §2, §3

[3] = Physical appearance, melt method, HCO-40 and compound 1001, at 25° C. and 4° C.; conditions: 1001 4 wt %; for Allow to reach room temperature (25° C.): brought back from 4° C.; for Mixture physical appearance at room temperature (4° C.): placed at 4° C.; for Resuspend in water: water at 40° C.
Procedure: The preparation of MNF encapsulating compound 1001 (neat oil) can be divided into two steps. As an example for the development of 3.0 wt % HCO-40 or HCO-60 MNF encapsulating 0.4% compound 1001 is described below. […] To this melt polymer compound 1001 (˜20 mg), thermostated at 40° C., was added and mixed for homogenous distribution. […] (in refrigerator).
as §2, §3

## C#CC[C@@H](O)/C=C/C=C/C#C[C@@H](O)CCCC(=O)OC(C)C [compound 1001]
[1]; HCO-40 0.5 wt %
  Final formulation: Emulsion
  Mixture physical appearance at room temperature (25° C.): Viscous yellow liquid
  Resuspend in water: Emulsion
[1]; HCO-40 0.75 wt %
  Final formulation: Emulsion
  Mixture physical appearance at room temperature (25° C.): Viscous yellow liquid
  Resuspend in water: Emulsion
[1]; HCO-40 1.0 wt %
  Final formulation: Emulsion
  Mixture physical appearance at room temperature (25° C.): Viscous yellow liquid
  Resuspend in water: Emulsion
[1]; HCO-40 1.25 wt %
  Final formulation: Emulsion
  Mixture physical appearance at room temperature (25° C.): Viscous yellow liquid
  Resuspend in water: Emulsion
[1]; HCO-40 1.5 wt %
  Final formulation: Emulsion
  Mixture physical appearance at room temperature (25° C.): Viscous yellow liquid
  Resuspend in water: Emulsion
[1]; HCO-40 1.75 wt %
  Final formulation: Emulsion
  Mixture physical appearance at room temperature (25° C.): Viscous yellow liquid
  Resuspend in water: Emulsion
[1]; HCO-40 2.0 wt %
  Final formulation: Emulsion
  Mixture physical appearance at room temperature (25° C.): Viscous yellow liquid
  Resuspend in water: Emulsion
[1]; HCO-40 2.25 wt %
  Final formulation: Emulsion
  Mixture physical appearance at room temperature (25° C.): Viscous yellow liquid
  Resuspend in water: Emulsion
[1]; HCO-40 2.5 wt %
  Final formulation: Yellow color
  Mixture physical appearance at room temperature (25° C.): Viscous yellow liquid
  Resuspend in water: Yellow
[1]; HCO-40 2.75 wt %
  Final formulation: Pale yellow
  Mixture physical appearance at room temperature (25° C.): Viscous yellow liquid
  Resuspend in water: Pale
[1]; HCO-40 3.0 wt %
  Final formulation: Clear solution
  Mixture physical appearance at room temperature (25° C.): Viscous yellow liquid
  Resuspend in water: Clear
[1]; HCO-40 4.0 wt %
  Final formulation: Clear solution
  Mixture physical appearance at room temperature (25° C.): Viscous yellow liquid
  Resuspend in water: Clear
[2]; HCO-60 1.0 wt %
  Final formulation (make up with 2X buffer containing 0.01% Oc-40): Emulsion
  Resuspend in water: Emulsion
  Physical appearance at room temperature (25° C.): Pale yellow half
[2]; HCO-60 2.0 wt %
  Final formulation (make up with 2X buffer containing 0.01% Oc-40): Pale yellow clear
  Resuspend in water: Forms pale
  Physical appearance at room temperature (25° C.): Pale yellow
[2]; HCO-60 2.25 wt %
  Final formulation (make up with 2X buffer containing 0.01% Oc-40): Pale yellow clear
  Resuspend in water: Forms pale
  Physical appearance at room temperature (25° C.): Pale yellow waxy
[2]; HCO-60 2.5 wt %
  Final formulation (make up with 2X buffer containing 0.01% Oc-40): Pale yellow clear
  Resuspend in water: Forms very
  Physical appearance at room temperature (25° C.): Pale yellow waxy
[2]; HCO-60 2.75 wt %
  Final formulation (make up with 2X buffer containing 0.01% Oc-40): Clear solution
  Resuspend in water: Forms very
  Physical appearance at room temperature (25° C.): Pale yellow waxy
[2]; HCO-60 3.0 wt %
  Final formulation (make up with 2X buffer containing 0.01% Oc-40): Clear solution
  Resuspend in water: Clear solution
  Physical appearance at room temperature (25° C.): Pale yellow waxy
[2]; HCO-60 3.5 wt %
  Final formulation (make up with 2X buffer containing 0.01% Oc-40): Clear solution
  Resuspend in water: Clear solution
  Physical appearance at room temperature (25° C.): Pale yellow waxy
[2]; HCO-60 4.0 wt %
  Final formulation (make up with 2X buffer containing 0.01% Oc-40): Clear solution
  Resuspend in water: Clear solution
  Physical appearance at room temperature (25° C.): Pale yellow waxy
[3]; HCO-40 0.5 wt %
  Final formulation: Emulsion
  Mixture physical appearance at room temperature (25° C.): Viscous yellow
  Allow to reach room temperature (25° C.): Viscous liquid
  Mixture physical appearance at room temperature (4° C.): Viscous liquid
  Resuspend in water: Emulsion
[3]; HCO-40 0.75 wt %
  Final formulation: Emulsion
  Mixture physical appearance at room temperature (25° C.): Viscous yellow
  Allow to reach room temperature (25° C.): Viscous liquid
  Mixture physical appearance at room temperature (4° C.): Viscous liquid
  Resuspend in water: Emulsion
[3]; HCO-40 1.0 wt %
  Final formulation: Emulsion
  Mixture physical appearance at room temperature (25° C.): Viscous yellow
  Allow to reach room temperature (25° C.): Viscous liquid
  Mixture physical appearance at room temperature (4° C.): Viscous liquid
  Resuspend in water: Emulsion
[3]; HCO-40 1.25 wt %
  Final formulation: Emulsion
  Mixture physical appearance at room temperature (25° C.): Viscous yellow
  Allow to reach room temperature (25° C.): Viscous liquid
  Mixture physical appearance at room temperature (4° C.): Viscous liquid
  Resuspend in water: Emulsion
[3]; HCO-40 1.5 wt %
  Final formulation: Emulsion
  Mixture physical appearance at room temperature (25° C.): Viscous yellow
  Allow to reach room temperature (25° C.): Viscous liquid
  Mixture physical appearance at room temperature (4° C.): Yellow waxy
  Resuspend in water: Emulsion
[3]; HCO-40 1.75 wt %
  Final formulation: Emulsion
  Mixture physical appearance at room temperature (25° C.): Viscous yellow
  Allow to reach room temperature (25° C.): Viscous liquid
  Mixture physical appearance at room temperature (4° C.): Yellow waxy
  Resuspend in water: Emulsion
[3]; HCO-40 2.0 wt %
  Final formulation: Emulsion
  Mixture physical appearance at room temperature (25° C.): Viscous yellow
  Allow to reach room temperature (25° C.): Viscous liquid
  Mixture physical appearance at room temperature (4° C.): Yellow waxy
  Resuspend in water: Emulsion
[3]; HCO-40 2.25 wt %
  Final formulation: Emulsion
  Mixture physical appearance at room temperature (25° C.): Viscous yellow
  Allow to reach room temperature (25° C.): Viscous liquid
  Mixture physical appearance at room temperature (4° C.): Yellow waxy
  Resuspend in water: Emulsion
[3]; HCO-40 2.5 wt %
  Final formulation: Yellow color
  Mixture physical appearance at room temperature (25° C.): Viscous yellow
  Allow to reach room temperature (25° C.): Viscous liquid
  Mixture physical appearance at room temperature (4° C.): Yellow waxy
  Resuspend in water: Yellow
[3]; HCO-40 2.75 wt %
  Final formulation: Very pale yellow
  Mixture physical appearance at room temperature (25° C.): Viscous yellow
  Allow to reach room temperature (25° C.): Viscous liquid
  Mixture physical appearance at room temperature (4° C.): Pale yellow waxy
  Resuspend in water: Pale yellow
[3]; HCO-40 3.0 wt %
  Final formulation: Clear solution
  Mixture physical appearance at room temperature (25° C.): Viscous yellow
  Allow to reach room temperature (25° C.): Viscous liquid
  Mixture physical appearance at room temperature (4° C.): Pale yellow solid
  Resuspend in water: Clear
[3]; HCO-40 4.0 wt %
  Final formulation: Clear solution
  Mixture physical appearance at room temperature (25° C.): Viscous yellow
  Allow to reach room temperature (25° C.): Pale yellow
  Mixture physical appearance at room temperature (4° C.): Pale yellow waxy
  Resuspend in water: Clear
